Test results reported in US5482954A, “Signal transduction inhibitor triazole and diazole compounds” (priority 1994, dated 1996).
Read-outs that look alike come from different tables or passages of the source.

Assays:
A2058 melanoma cells = experiment: Reversibility of inhibition of tumor cell motility; format: cell-based, human; conditions: for activity at 1 µg/mL / activity at 5 µg/mL: Homo sapiens, read-out: Motility (% of control)
Method: The cell motility assay has been described. See, Stracke et al., Biochem. Biophys. Res. Comm., 146:339-345 (1987). Cells from the A2058 human melanoma line which was maintained in subconfluent culture were harvested with trypsin-EDTA, and were allowed to recover for 1 hr at room temperature. Cells from the 5R H-ras transformed (diploid) rat embryo fibroblast line were harvested with 2 mM EDTA in PBS without divalent cations. Cells were resuspended in serum-free media containing 0.1% BSA. This DMEM/0.1% BSA was used as the control for all subsequent assays. The assays were performed in triplicate using a 48-well chemotaxis chamber with 8μ Nucleopore, type IV collagen-coated filters. The chambers were incubated at 37° C. for 4 hr, stained and placed onto glass slides with the original cell side up so that the cell pellet could be wiped from the surface. Cells that had migrated through the pores were trapped between glass and membrane and could be quantitated by laser densitometry.
Reversibility of cell motility which had been inhibited by compound 1 was determined by removing the compound from the incubation media. Thus, A2058 melanoma cells were cultured for 24 hr in standard media (DMEM/10% FCS), washed twice with saline, and cultured with DMEM/10% FCS with (+) or without (-) compound 1 for 24 hr. Cells were then washed and the treatments were reversed. The resulting cells are classified as "treated" (±, run as a control to test cell response following the incubation and washing steps), "washout" (±, run to evaluate reversibility), and "control". Control cells were washed and fed with standard media alone at each change point. Table E provides the results expressed as a percent of control cell motility at two concentrations of compound 1.

solid tumor metastasis = experiment: Phase I clinical study, tumor response; format: in vivo, human
Text: This example illustrates the effect of compound 1 on tumor growth and metastasis when administered orally to seven patients in an FDA approved phase I clinical study.
Seven patients with solid tumor metastasis are undergoing treatment via oral administration of compound 1 under the FDA approved phase I clinical study. Table J provides data on the patients' response to this treatment. PT# is patient number. Response is the sum of the products of bidirectional measurements. No measurement means that while the disease was evaluable, it was not measureable. The concentration of the drug in the blood of the patients is well within the range which inhibits signal transduction in vitro and which inhibits tumor growth in vitro and in animals.

[1] = system: T-type voltage gated calcium channels; conditions: Hupe, et al.; cited from earlier work
T24 (EJ) bladder = experiment: Growth of tumor cell lines; format: cell-based; conditions: T-24 human bladder cancer with activated H-ras
Method: In one study, the cells were continuously exposed to 20 μM compound 1, and growth inhibition was measured. In a second study, cell lines which only grow in suspension were plated in 24 well plates (50,000 cells/well) and were incubated with increasing concentrations of compound 1. After 72 hr in culture, the cells were harvested, centrifuged,resuspended in a small volume. The number of remaining cells and their viability was determined using a hemocytometer.

A2058 or 5R cells = experiment: Cell spreading; format: cell-based
Method: Cells were preincubated with compound 1 (0.03-10 μg/mL) for periods of 2 to 48 hr prior to the adhesion assay. In addition, compound 1 remained present during the assay. […] Maximal inhibition of adhesion was observed following overnight exposure of the cells to compound 1.

OVCAR3 cells [2] = experiment: Oral treatment of intraperitoneal xenografts; format: in vivo, nude mice
CHOm5 cells = experiment: Carbachol-stimulated 45Ca2+ influx; format: cell-based, Chinese hamster; design: % Inhibition of 45Ca2+ Influx into CHOm5 Cells: concentration or dose not given beside the values
Method: Calcium influx was determined using two methods. The first method involved the use of ^45 Ca^2+, while the second method utilized a fluorescent intracellular calcium chelator, Fura-2. The method using Fura-2 is semi-quantitative and is preferred for kinetic analysis and screening whereas the ^45 Ca^2+ method is quantitative.
CHOm5 cells in monolayer culture were washed free of serum-containing media and incubated with either carbachol or the calcium ionophore A23187 (from Molecular Probes, Eugene, Oreg., USA) in the presence of ^45 Ca^2+ and defined buffer (E2 medium with 0.1 mM MgCl2 and 1.0 mM CaCl2). After incubation for 5 min, the radioactive buffer was rapidly and repeatedly washed off with media containing LaCl3, a competitor of calcium efflux. The cell monolayer was solubilized and the calcium uptake was determined by scintillation counting.
Stimulated uptake of radiolabelled calcium was measured as described above. The abbreviations CTL and CC are control and carbachol-stimulated calcium influx values. respectively.

MDA-231 cells = experiment: Clonogenic (crystal violet) proliferation assay; format: cell-based, human; conditions: 0-10 μg/mL, 96 hr
Method: (§1) Proliferation: Two independent methods were used to determine the effect of various compounds on cellular proliferation. The first method utilized [^3 H]thymidine labelling and was performed using A2058, 5R, OVCAR3, and MDA-231 cells. Because the potential effect of compound 1 on thymidine metabolism was unknown, a clonogenic assay was also used. This assay utilized crystal violet nuclear staining.
(§2) For the clonogenic assay, aliquots of 50,000 cells per well (24 well plates) were grown under standard tissue culture conditions in the presence of increasing doses or test compound (0-10 μg/mL) or vehicle control. After 96 hr, the cells were gently washed with PBS, fixed, and stained with 0.5% crystal violet nuclear stain in 20% methanol. Excess stain was removed with tap water and bound stain was eluted with an equal volume solution of 01N sodium citrate (pH 4.2) and absolute ethanol. Optical density (O.D.) of eluted crystal violet stain was determined at 540 nm. The results of dose-dependent inhibition of tumor cell proliferation by compound 1 are shown in FIG. 5, in which the data are expressed as percent of untreated control cell proliferation for each cell type. The degree of inhibition varied with the cell type and was maximal (76%) for the A2058 cell line.

A2058 cells = experiment: Clonogenic (crystal violet) proliferation assay; format: cell-based, human; conditions: 0-10 μg/mL, 96 hr
Method: as §1, §2

OVCAR3 cells [3] = experiment: Clonogenic (crystal violet) proliferation assay; format: cell-based, human; conditions: 0-10 μg/mL, 96 hr
Method: as §1, §2

[4] = patient 1, melanoma, 100 mg/m^2 qod
[5] = patient 2, colon, 100 mg/m^2 qd
[6] = patient 4, ovary, 100 mg/m^2 qd

`NC(=O)c1nnn(Cc2cc(Cl)c(C(=O)c3ccc(Cl)cc3)c(Cl)c2)c1N` [Compound 1] showed an activity at 1 µg/mL (A2058 melanoma cells; A2058, 1 μg/mL (+/-)) of 97%, an activity at 1 µg/mL (A2058 melanoma cells; A2058, 1 μg/mL (-/+)) of 59% and an activity at 5 µg/mL (A2058 melanoma cells; A2058, 5 μg/mL (+/-)) of 94%. The activity at 5 µg/mL (A2058 melanoma cells; A2058, 5 μg/mL (-/+)) was 27%, the “reversibility of motility inhibition” value (A2058 melanoma cells; removal of the compound from the culture medium) was “could be reversed by removal of the compound from the culture medium” and the RESPONSE (solid tumor metastasis; [4]) was “Stable”. The “RESPONSE (sum of products of bidirectional measurements)” value (solid tumor metastasis; [4]) was “+8%”, the “inhibition of growth rate (cm^2 /day)” value (solid tumor metastasis; patient 1, metastasis lesion #1, X-ray) was 79% and the “inhibition of growth rate (cm^2 /day)” value (solid tumor metastasis; patient 1, metastasis lesion #2, X-ray) was 59%. The “suppression and regression of colon cancer metastases” value (solid tumor metastasis; patient 2) was “suppression and regression of 3 of 3 colon cancer metastases”, the RESPONSE (solid tumor metastasis; [5]) was “Stable” and the “RESPONSE (sum of products of bidirectional measurements)” value (solid tumor metastasis; [5]) was -22%. The RESPONSE (solid tumor metastasis; patient 3, colon, 100 mg/m^2 qd) was “Stable”, the RESPONSE (solid tumor metastasis; [6]) was “Stable” and the “RESPONSE (sum of products of bidirectional measurements)” value (solid tumor metastasis; [6]) was -21%. The RESPONSE (solid tumor metastasis; patient 5, lung, 200 mg/m^2 qod) was “Stable”, the RESPONSE (solid tumor metastasis; patient 6, carcinoid, 200 mg/m^2 qod) was “Stable” and the RESPONSE (solid tumor metastasis; patient 7, colon, 200 mg/m^2 qod) was “Progres-”. The “inhibition of T-type voltage gated calcium channels” value [1] was “inhibit”, the inhibition of proliferation (T24 (EJ) bladder) was “inhibited proliferation” and the cell spreading (A2058 or 5R cells) was “not markedly decreased”. The “time to development of ascites” value (OVCAR3 cells [2]; 100 mg/kg daily oral) was “Statistically significant differences”, the “tumor necrosis and pulmonary micrometastases (histology)” value (OVCAR3 cells [2]; 100 mg/kg daily oral) was “induced tumor necrosis and inhibition of pulmonary micrometastases” and the “volume of ascites at necropsy” value (OVCAR3 cells [2]; 100 mg/kg daily oral) was “Statistically significant differences”. For the same compound, the “progression of OVCAR3 xenografts” value (OVCAR3 cells [2]; FIG. 16B, 100 mg/kg by gavage) was “inhibits progression of OVCAR3 xenografts”, the IC50 (CHOm5 cells; Cricetulus griseus, FIG. 12, carbachol) was 935 ± 18 nM and the “% Inhibition of 45Ca2+ Influx into CHOm5 Cells” value (CHOm5 cells; Table I, carbachol-stimulated) was 74%. The “inhibition of tumor cell proliferation” value (MDA-231 cells) was “dose dependent inhibition of tumor cell proliferation”, the “maximal inhibition of tumor cell proliferation” value (A2058 cells) was 76% and the “inhibition of tumor cell proliferation” value (OVCAR3 cells [3]) was “dose dependent inhibition of tumor cell proliferation”.
